Assay results from patent publication US20190022072A1, “USAGE OF ACETAZOLAMIDE FOR TREATING ICH, PARTICULARLY HYPERGLYCEMIC ICH” (priority 2017, published 2019).

Legend:
AQP4 = experiment: expression of AQP4 in brain tissues of normoglycemic and hyperglycemic rats with experimental ICH, immunohistochemistry; assay type: in vivo, Wistar rats
Experimental: (§1) In the hyperglycemia experiment, six Wistar rats are applied. Regarding each rat, hyperglycemia is induced by a single intraperitoneal injection of a buffer solution of streptozotocin (STZ) in 31 mM citrate and 39 mM sodium phosphate at 70 mg/kg body weight after an overnight fast. On the other hand, control rats receive an intraperitoneal injection of buffer vehicle. On day 3 after STZ treatment, whole blood of the rats is obtained and the glucose levels thereof are measured. Blood glucose level of ≥250 mg/dL was chosen as hyperglycemia, whereas rats were used as normoglycemia, defined as a blood glucose level of <100 mg/dL.
(§2) Then in the intracerebral hemorrhage experiment, each hyperglycemic or normoglycemic rat is anesthetized with an intraperitoneal injection of 50 mg/kg pentobarbital. Next, a needle is introduced through a burr hole into the striatum, and the needle is then removed, with the burr hole sealed with bone wax and the wound sutured. After a period of time, AZA is administered orally or by gastric lavage at 5 mg/kg in normal saline. Blood of the rats are sampled on days 1, 4, and 7 post-induction of ICH for testing the glucose level thereof.
Experiment 3: determining the expression of AQP4 in normoglycemic and hyperglycemic rats.
The differential expressions of AQP4 in normoglycemic and hyperglycemic rats are detected by AQP4 autoantibody by Immunohistochemistry. The effect of AZA influencing the expression of AQP4 are tested.

experimental ICH = experiment: hemorrhagic areas of brains of normoglycemic and hyperglycemic rats with experimental ICH treated with AZA; assay type: in vivo, Wistar rats
Experimental: as §1, §2
Experiment 2: comparing the hemorrhagic areas of normoglycemic and hyperglycemic rats treated with AZA.

[1] = hyperglycemic rats treated with AZA, day 1
[2] = hyperglycemic rats treated with AZA, day 4
[3] = hyperglycemic rats treated with AZA, day 7
[4] = normoglycemic rats treated with AZA, day 1
[5] = normoglycemic rats treated with AZA, day 4
[6] = normoglycemic rats treated with AZA, day 7

Structure (SMILES): CC(=O)Nc1nnc(S(N)(=O)=O)s1 [AZA, acetazolamide]
- AQP4 expression, change in words (AQP4; hyperglycemic rats administered with AZA (5 mg/kg)): significant decrease
- the expression of AQP4 (AQP4; [1]): 15.67 ± 6.59
- the expression of AQP4 (AQP4; [2]): 8.65 ± 4.53%
- the expression of AQP4 (AQP4; [3]): 2.33 ± 3.83
- the expression of AQP4 (AQP4; [4]): 12.19 ± 2.75
- the expression of AQP4 (AQP4; [5]): 18.56 ± 5.67 ^
- the expression of AQP4 (AQP4; [6]): 37.84 ± 6.53
- hemorrhagic areas, change in words (experimental ICH; both normoglycemic and hyperglycemic rats treated with AZA): significant decrease
- hemorrhagic areas square measure of rats (%) (experimental ICH; [1]): 2.08 ± 0.02%
- hemorrhagic areas square measure of rats (%) (experimental ICH; [2]): 0.91 ± 0.13%
- hemorrhagic areas square measure of rats (%) (experimental ICH; [3]): 0.38 ± 0.10%
- hemorrhagic areas square measure of rats (%) (experimental ICH; [4]): 6.00 ± 0.05%
- hemorrhagic areas square measure of rats (%) (experimental ICH; [5]): 2.61 ± 0.17%
- hemorrhagic areas square measure of rats (%) (experimental ICH; [6]): 1.37 ± 0.05%
